Converted amounts (≈) assume the structure as drawn. Read-outs that look alike come from different tables or passages of the source.
Key:
[1] = mouse, in vivo
[2] = system: IGROV-1/Pt (human ovarian carcinoma); assay: Antiproliferative activity, IGROV-1/Pt; type: cell-based
Method: (§1) Drugs were dissolved in DMSO and freshly diluted in medium before use. The antiproliferative activity was evaluated on A2780 (human ovarian carcinoma) and its derived drug-resistant cell lines (A2780/DX, A2780/DDP), IGROV-1/Pt1 (human ovarian carcinoma), GBM (human glioblastoma) and MX-1 (human mammary carcinoma). All cell lines, except MX-1, were maintained in RPMI 1640 (Bio-Whittaker, Verviers, Belgium) supplemented with 10% fetal calf serum (Life Technologies, Gaithersburg, MD, USA). MX-1 cells were maintained in McCoy's medium (Life Technologies, Gaithersburg, MD, USA) supplemented with 10% fetal calf serum. For experiments, all cell lines were seeded into six-well plates in duplicate and treated, 24 or 72 h (only MX-1 cells) after seeding, with solvent or different concentrations of taxanes. Adherent cells were counted 72 h after the beginning of treatment, by a cell counter (Coulter Electronics, Luton, UK) or detected by the Sulforhodamine B colorimetric assay (only GBM cells). The IC50 was defined as the drug concentration causing a 50% decrease in cell number over that of untreated controls.

A2780/DDP cells = assay: Antiproliferative activity, A2780/DDP; type: cell-based; conditions: Homo sapiens, 72 h treatment, cell counting, mean±s.d., three experiments
Method: as §1

[3] = Pharmacokinetic study, plasma levels by HPLC; type: in vivo, CDF1 mice; conditions: female, CDF1, mouse
Method: In order to assess the bioavailability of IDN 5390, a pharmaco-kinetic study was performed in female CDF1 mice (Charles River Italia, Calco, Italy). IDN 5390, formulated in Polysorbate 80 and diluted in 0.9% NaCl solution, immediately before treatment, was administered p.o. or i.v. at the dose of 120 mg kg^−1. Blood samples were taken (four mice per group) from the retro-orbital plexus, under diethylether anaesthesia at 5, 15 and 30 min and at 1, 2 and 4 h.
IDN 5390 levels were determined in plasma according to the high-performance liquid chromatography (HPLC) method of [Zaffaroni et al (2002)]. Briefly, plasma samples (0.4 ml) were spiked with 1 μg IDN 5517, as internal standard, and with 0.7 ml of 0.2 M ammonium acetate buffer, pH 4.5, and extracted by solid-phase extraction on a cyano cartridge (Waters, Millford, MA, USA). HPLC analyses were carried out on a Symmetry C18 column (3.5 μm, 4.6 × 150 mm; Waters, London, UK), with UV detection of the analytes at 227 nm. The lower limit of quantitation was of 50 ng ml^−1.
Pharmacokinetic parameters were calculated by using a nonlinear fitting program ([Sacchi-Landriani et al, 1983]). The experimental areas under the concentration–time curve (AUCexp) of IDN 5390 were calculated by the trapezoidal rule. Extrapolations to infinity (AUCinf) were obtained by dividing the concentration at the last experimental points by the elimination constant (Ke). The terminal half-lives (T1/2) were calculated using the formula T1/2=0.693/Ke. Clearance (Clp) and volume of distribution (Vd) were obtained from the following relation: Clp=Dose/AUCext and Vd=Clp/Ke, respectively. The bioavailability (F) was derived from the ratio: F=AUCp.o./AUCi.v. 100.

VEGF = VEGF expression in GBM cells, immunoblotting; conditions: 72 h at IC80: IDN 5390 40, PTX 17 ng ml^−1
[4] = system: A2780/DDP ovarian tumour xenograft; assay: Antitumour activity on A2780/DDP xenograft; conditions: for Tox/Tot: toxic deaths/total mice
Method: (§2) All the experiments were carried out using female athymic nude CD-1 mice, 8–11 weeks old (Charles River, Calco, Italy). The mice were maintained in laminar flow rooms with constant temperature and humidity.
(§3) Taxanes were dissolved by adding absolute ethanol and Cremophor ELP (both 5% of the final volume), in that sequence, on a magnetic stirrer. […] After dilution, the drug solutions were always kept on ice. […] (Milano, Italy) and, just before use, it was diluted, by slowly adding 0.9% NaCl and occasionally stirring the solution (final Polysorbate 80: 10%, v v^−1). […] When higher doses were to be given, larger volumes were injected.
(§4) Tumour lines were maintained in vivo by successive s.c. transplants of tumour fragments in animal flanks.
(§5) For chemotherapy experiments, tumour fragments (about 2 × 2 × 2 mm), obtained from tumour lines, were implanted s.c. Each control or drug-treated group included five or six mice bearing bilateral s.c. tumours. Tumours were implanted on day 0, and tumour growth was followed by biweekly measurements of tumour diameters with a vernier caliper. Tumour weight (TW) was calculated according to the formula: TW (mg)=tumour volume (mm^3)=d^2 × D/2, where d and D are the shortest and the longest diameter, respectively. Different treatment routes (i.v., s.c. or p.o.) and schedules (daily or intermittent) were investigated. […] Control mice were injected with the solvent solution.
(§6) Experimental groups were eliminated when mean TW was about 1.5±0.5 g, or after 100 days.
(§7) For statistical analysis, tumour weights in different groups of treated mice were compared on day of TWI% evaluation, by Student's t-test (two-tailed). P⩽0.05 was considered significant.
(§8) The tolerability of the compound was assessed in tumour-bearing mice as follows: (a) lethal toxicity, that is, any death in treated mice without or with small (⩽300 mg) tumours, or occurring before any control death; (b) body weight loss % (BWL%)=100–(BW on day x/BW on day 1 × 100), where x represents a day after or during the treatment period. The maximal BWL values are reported; and (c) vesicant toxicity defined as the appearance of ulcers and/or inflammation at the injection site where the drugs were delivered s.c.

in vivo = conditions: female, athymic nude CD-1, mouse, sc
[5] = system: IGROV-1 PTX-resistant ovarian tumour xenograft; assay: Antitumour activity on IGROV-1 xenograft; conditions: p.o., qd × 5/w × 3w, 120 mg kg^−1
Method: as §2, §3, §4, §5, §6, §7, §8

GBM (human glioblastoma) = assay: Antiproliferative activity, GBM (Sulforhodamine B); type: cell-based
Method: as §1

[6] = system: MX-1 mammary tumour xenograft; conditions: for LCK (1 g) / Max BWL (%) / Tox/Tot / Max TWI%: qd × 4–5/w × 3w
[7] = s.c., qd × 5/w × 2w, 120 mg kg^−1
[8] = 2 × 90 mg kg^−1 p.o., up to 5 weeks, 50 treatments

For `CC(=O)O[C@@]1([C@@H]2/C(C)=C(/O)C(=O)C3=C(C)[C@@H](OC(=O)[C@H](O)[C@H](CC(C)C)NC(=O)OC(C)(C)C)C[C@@](O)([C@H]2OC(=O)c2ccccc2)C3(C)C)CO[C@@H]1CCO` [IDN 5390, 13-(N-Boc-β-isobutylisoserinyl)-10β-dehydro-C-seco-10-deacetylbaccatin III], the neurotoxicity [1] was “no symptoms of neurotoxicity were evident”, the IC50 ([2]; IGROV-1, 72 h treatment, cell counting, mean±s.d., three experiments) was 0.0615 ± 0.0045 µg/mL (≈ 0.0781 µM) and the IC80 ([2]; IGROV-1/Pt cells, read-out: IC80 (equitoxic concentration)) was 0.3 µg/mL (≈ 0.381 µM). It also gave an IC50 (A2780/DDP cells) of 0.0318 ± 0.0055 µg/mL (≈ 0.0404 µM), a bioavailability ([3]; in vivo, bioavailability (F)) of 27.3% and a Vd ([3]; in vivo, iv) of 0.21. For the same compound, the AUC ([3]; in vivo, iv, 120 mg/kg) was 125000 ng·h/mL, the AUC(0-inf) ([3]; in vivo, iv, 120 mg/kg) was 128000 ng·h/mL and the Cmax ([3]; in vivo, iv, 120 mg/kg) was 161 µg/mL. It also gave a Tmax ([3]; in vivo, iv, 120 mg/kg) of 5 min, a clearance ([3]; in vivo, iv, 120 mg/kg) of 15.5 mL/min/kg and a half-life ([3]; in vivo, iv, 120 mg/kg) of 54 min. The AUC ([3]; in vivo, po, 120 mg/kg) was 34400 ng·h/mL, the AUC(0-inf) ([3]; in vivo, po, 120 mg/kg) was 35100 ng·h/mL and the Cmax ([3]; in vivo, po, 120 mg/kg) was 25 µg/mL. For the same compound, the Tmax ([3]; in vivo, po, 120 mg/kg) was 30 min, the half-life ([3]; in vivo, po, 120 mg/kg) was 42 min and the half-life ([3]; plasma, 120 mg kg^−1, in mice, read-out: T1/2) was less than 60 min. For the same compound, the VEGF expression (VEGF) was “downregulated”, the “LCK (1 g)” value ([4]; i.v., q4d × 4, 90 mg kg^−1) was 0.2 and the “Max BWL (%)” value ([4]; i.v., q4d × 4, 90 mg kg^−1) was 0%. The “Max TWI%” value ([4]; i.v., q4d × 4, 90 mg kg^−1, day 18, start at tumour weight about 100 mg) was 17 (18) %, the Tox/Tot ([4]; i.v., q4d × 4, 90 mg kg^−1) was 0/5 and the “LCK (1 g)” value ([4]; i.v., q4d × 4, 120 mg kg^−1) was 0.3. For the same compound, the “Max BWL (%)” value ([4]; i.v., q4d × 4, 120 mg kg^−1) was 3%, the “Max TWI%” value ([4]; i.v., q4d × 4, 120 mg kg^−1, day 18) was 46 (18) % and the Tox/Tot ([4]; i.v., q4d × 4, 120 mg kg^−1) was 0/5. The “LCK (1 g)” value [4, 7] was 1.8, the “Max BWL (%)” value [4, 7] was 2.5% and the “Max TWI%” value ([4]; s.c., qd × 5/w × 2w, 120 mg kg^−1, day 27) was 92 (27) %. The Tox/Tot [4, 7] was 0/5, the MTD (in vivo) was 120 mg/kg and the “LCK (1 g)” value [5] was 2.2. For the same compound, the “Max BWL (%)” value [5] was 13%, the “TWI% (day 27)” value [5] was 73% and the Tox/Tot [5] was 0/4. For the same compound, the IC50 (GBM (human glioblastoma); 72 h treatment, Sulforhodamine B assay, mean±s.d., three experiments) was 0.0129 ± 0.0024 µg/mL (≈ 0.0164 µM), the IC80 (GBM (human glioblastoma); GBM cells, read-out: IC80 (equitoxic concentration)) was 0.04 µg/mL (≈ 0.0508 µM) and the antitumour efficacy ([6]; 30 mg kg^−1 p.o. twice a day, start when tumours averaged 100 mg) was “not very effective”. The “tumours exhibiting CR at the end of the experiment” value ([6]; 2 × 90 mg kg^−1 p.o., 5 weeks, end of the experiment (100 days)) was “six out of 10”, the lethal toxicity [6, 8] was “no lethal toxicity” and the “max BWL” value [6, 8] was 11%. The “LCK (1 g)” value ([6]; p.o., 120 mg kg^−1, from day 1) was 1.1, the “Max BWL (%)” value ([6]; p.o., 120 mg kg^−1, from day 1) was 5% and the Tox/Tot ([6]; p.o., 120 mg kg^−1, from day 1) was 0/5. The “Max TWI%” value ([6]; p.o., 120 mg kg^−1, from day 1, day 25) was 82(25) %, the TWI ([6]; s.c., all doses, after 3 weeks of treatment) was greater than 80% and the “LCK (1 g)” value ([6]; s.c., 60 mg kg^−1, from day 1) was 1.4. For the same compound, the “Max BWL (%)” value ([6]; s.c., 60 mg kg^−1, from day 1) was 3%, the Tox/Tot ([6]; s.c., 60 mg kg^−1, from day 1) was 0/3 and the “Max TWI%” value ([6]; s.c., 60 mg kg^−1, from day 1, day 29) was 83(29) %. For the same compound, the “LCK (1 g)” value ([6]; s.c., 90 mg kg^−1, from day 1) was 2.7, the “Max BWL (%)” value ([6]; s.c., 90 mg kg^−1, from day 1) was 3.5% and the Tox/Tot ([6]; s.c., 90 mg kg^−1, from day 1) was 0/5. The “Max TWI%” value ([6]; s.c., 90 mg kg^−1, from day 1, day 29) was 97(29) %, the “LCK (1 g)” value ([6]; s.c., 120 mg kg^−1, from day 1) was 1.7–3.1 and the “Max BWL (%)” value ([6]; s.c., 120 mg kg^−1, from day 1) was 6–7.5%. For the same compound, the Tox/Tot ([6]; s.c., 120 mg kg^−1, from day 1) was 1/10 and the “Max TWI%” value ([6]; s.c., 120 mg kg^−1, from day 1, day 25, P<0.05 vs p.o.) was 93–96 ^*(25) %.

Reference: article PMC2377083, “IDN 5390: an oral taxane candidate for protracted treatment schedules” (British Journal of Cancer, 2003)
